Key:
[1] = (§1) The drug is tested on WLS-370 corresponding to human gut metagenome with ENA study accession number: PRJEB37062 and ENA sample accession number: ERS12561793 for biotransformation under anaerobic condition. The drug concentrations were measured over 9 timepoints collected between 0 and 24 hours of incubation by liquid-chromatography-coupled mass spectrometry (LC–MS); details: 2 µM
[2] = as §1, with “WLS-170” for “WLS-370”, “ERS12561762” for “ERS12561793”; details: 2 µM
[3] = as §1, with “WLS-098” for “WLS-370”, “ERS12561754” for “ERS12561793”; details: 2 µM
[4] = human gut metagenome, 24 h, 2 µM
[5] = human gut metagenome, 24 h, 2 µM; remark: listed apart in the source
[6] = human gut metagenome, 24 h, 2 µM; remark: listed apart in the source
[7] = human gut metagenome, 24 h, 2 µM; remark: listed apart in the source
[8] = human gut metagenome, 24 h, 2 µM; remark: listed apart in the source
[9] = human gut metagenome, 24 h, 2 µM; remark: listed apart in the source
[10] = human gut metagenome, 24 h, 2 µM; remark: listed apart in the source
[11] = human gut metagenome, 24 h, 2 µM; remark: listed apart in the source
[12] = human gut metagenome, 24 h, 2 µM; remark: listed apart in the source
[13] = human gut metagenome, 24 h, 2 µM; remark: listed apart in the source
Note: call rule not given here.

CN(C)CCOC(c1ccc(Cl)cc1)c1ccccn1.O=C(O)/C=C\C(=O)O (stereo not drawn) [CARBINOXAMINE MALEATE]
Bacterial Biotransformation [1]: Compound NOT metabolized
Bacterial Biotransformation [2]: Compound metabolized
Bacterial Biotransformation [3]: Compound NOT metabolized
Bacterial Biotransformation [4]: Compound NOT metabolized
Bacterial Biotransformation [5]: Compound NOT metabolized
Bacterial Biotransformation [6]: Compound NOT metabolized
Bacterial Biotransformation [7]: Compound NOT metabolized
Bacterial Biotransformation [8]: Compound NOT metabolized
Bacterial Biotransformation [9]: Compound metabolized
Bacterial Biotransformation [10]: Compound NOT metabolized
Bacterial Biotransformation [11]: Compound metabolized
Bacterial Biotransformation [12]: Compound metabolized
Bacterial Biotransformation [13]: Compound NOT metabolized

— ChEMBL document CHEMBL5724914, “Linking interpersonal differences in gut microbiota composition and drug biotransformation activity” (2024)
